Reference: patent US20030077222A1, “Individualization of therapy with analgesics” (McGill University, priority 2001, published 2003)
Where two headings read alike, the source gives them in different places. Marks after values point to notes of the source that are not given here.

What was measured:
AAMU-Ab = test: Competitive antigen ELISA, cross-reactivity of AAMU-Ab; assay type: binding, rabbit; details: for % Cross-Reaction AAMU-Ab: competitive antigen ELISA, 0 = absence of inhibition or inhibition no higher than 40% at highest concentration tested (5×10^−3 M)
Description: (§1) Four mature females New Zealand white rabbits (Charles River Canada, St-Constant, Que., Canada) are used for antibody production. The protocol employed in this study was approved by the McGill University Animal Care Committee in accordance with the guidelines from the Canadian Council on Animal Care. Antibodies of the present invention may be monoclonal or polyclonal antibodies.
(§2) A 0.5 mL aliquot of the emulsion ([…] of antigen) is injected per rabbit intramuscularly or subcutaneously. Rabbits are subsequently boosted at intervals of three weeks with […] of antigen emulsified in incomplete Freund's adjuvant. […] Antisera are stored at 4° C. in the presence of 0.01% sodium azide.
(§3) Buffers and water without additives are filtered through millipore filters and kept for 1 week. BSA, antibodies, Tween™ 20 and horse radish peroxidase conjugates are added to these buffers and water just prior to use. Urine samples are usually collected 4 hours after drinking a cup of coffee (instant or brewed with approximately 100 mg of caffeine per cup) and stored at −80° C. The urine samples are diluted 10 times with sodium phosphate buffer (620 mosm, pH 7.50) and are subsequently diluted with water to give concentrations of AAMU and 1X no higher than 3×10^−6 M in the ELISA. All the pipettings are done with an eight-channel pipette, except those of the antibody and sample solutions. Starting with the last well, 100 μL of a carbonate buffer (100 mM, pH 9.6) containing 2.5 μg mL−^1 antibodies are added to each well. After 90 min. at room temperature, the wells are washed three times with […] of TPB: isotonic sodium phosphate buffer (310 mosm, pH 7.50) containing 0.05% Tween™ 20.
(§4) After the initial wash, unoccupied sites are blocked by incubation for 90 min. at room temperature with 100 μL TBP containing 3% BSA. The wells are washed four times with 100 μL TPB. […] The microplate is gently shaken with an orbital shaker at room temperature for 3-4 hours. The wells are washed three times with 100 μL TPB containing 1% BSA and three times with water containing 0.05% Tween™ 20. To the washed plate is added 150 μL of a substrate buffer composed of citric acid (25 mM) and sodium phosphate dibasic buffer (50 mM, pH 5.0) containing 0.06% hydrogen peroxide and 0.04% o-phenylenediamine hydrochloride.
(§5) Buffers and water without additives were filtered through millipore filters and kept for 1 week. BSA, antibodies, Tween™ 20 and horse radish peroxidase conjugates were added to these buffers and water just prior to use. Urine samples were usually collected 4 hours after drinking a cup of coffee (instant or brewed with approximately 100 mg of caffeine per cup) and stored at −80° C. They were diluted 10 times with sodium phosphate buffer (620 mosm, pH 7.50) and were subsequently diluted with water to give concentrations of AAMU and 1X no higher than 3×10^−6 M in the ELISA. All the pipettings were done with an eight-channel pipette, except those of the antibody and sample solutions. Starting with the last well, 100 μL of a carbonate buffer (100 mM, pH 9.6) containing 2.5 μg mL−^1 antibodies was pipetted. After 90 min. at room temperature, the wells were washed three times with 100 μL of TPB: isotonic sodium phosphate buffer (310 mosm, pH 7.50) containing 0.05% Tween™ 20.
(§6) After the initial wash, unoccupied sites were blocked by incubation for 90 min. at room temperature with 100 μL TBP containing 3% BSA. The wells were washed four times with 100 μL TPB. […] The microplate was gently shaken with an orbital shaker at room temperature for 3-4 hours. The wells were washed three times with […] TPB containing 1% BSA and three times with water containing 0.05% Tween™ 20. To the washed plate was added 150 μL of a substrate buffer composed of citric acid (25 mM) and sodium phosphate dibasic buffer (50 mM, pH 5.0) containing 0.06% hydrogen peroxide and 0.04% o-phenylenediamine hydrochloride.

1X-Ab = test: Competitive antigen ELISA, cross-reactivity of 1X-Ab; assay type: binding, rabbit; details: for % Cross-Reaction 1X-Ab: competitive antigen ELISA, 0 = absence of inhibition or inhibition no higher than 40% at highest concentration tested (5×10^−3 M)
Description: as §1, §2, §3, §4, §5, §6

[1] = cited from earlier work
[2] = cited from earlier work; remark: listed apart in the source

Row | SMILES | % Cross-Reaction AAMU-Ab (AAMU-Ab) | % Cross-Reaction 1X-Ab (1X-Ab) [%] | also measured
1 | O=c1[nH]c(=O)c2[nH]cnc2[nH]1 [Xanthine] | 0^a % | 0 | –
2 | O=c1[nH]c(=O)c2[nH]c(=O)[nH]c2[nH]1 [Uric acid] | 0% | 0 | –
3 | Cn1c(=O)[nH]c(=O)c2[nH]cnc21 [3-Methyl Xanthine] | 0% | 0 | –
4 | Cn1cnc2[nH]c(=O)[nH]c(=O)c21 [7-Methyl Xanthine] | 0% | 0 | –
5 | Cc1nc2[nH]c(=O)[nH]c(=O)c2[nH]1 [8-Methyl Xanthine] | 0% | 0 | –
6 | CC(=O)Nc1c(N)n(C)c(=O)n(C)c1=O [5-Acetamino-6-amino-1,3-dimethyluracil] | 0% | 0 | –
7 | Cn1c(=O)[nH]c2ncn(C)c2c1=O [1,7-Dimethyl Xanthine (Paraxanthine), 1,7-Dimethyl Xanthine] | 0% | 0.5 | –
8 | Nc1nc2nc[nH]c2c(=O)[nH]1 [Guanine] | 0% | 0 | –
9 | COc1cccc(C2(O)CCCCC2CN(C)C)c1 (stereo not drawn) [tramadol] | – | – | experimental pain model procedures with statistically significant effects ([1]; extensive metabolizers (CYP2D6), 15 individuals): seven of seven; experimental pain model procedures with statistically significant effects ([1]; poor metabolizers (CYP2D6), 12 individuals): three of seven
10 | O=c1[nH]cnc2nc[nH]c12 [Hypoxanthine] | 0% | 0 | –
11 | CC(=O)Nc1c(N)[nH]c(=O)[nH]c1=O [5-Acetamino-6-amino-uracil] | 0.6% | 0 | –
12 | Nc1ccc(S(=O)(=O)c2ccc(N)cc2)cc1 [dapsone] | – | – | adverse reactions to dapsone ([2]; fast acetylators): 17%; adverse reactions to dapsone ([2]; slow acetylators): 46%
13 | Cn1c(=O)c2c(ncn2C)n(C)c1=O [1,3,7-Trimethyl Xanthine (Caffeine), 1,3,7-Trimethyl Xanthine] | 0% | 0 | –
14 | Cn1c(=O)[nH]c2[nH]c(=O)[nH]c2c1=O [1-Methyluric acid] | 0% | 11 | –
15 | Cn1c(=O)[nH]c2nc[nH]c2c1=O [1-Methyl Xanthine (1X), 1-Methyl Xanthine] | 0% | 100 | IC50 (1X-Ab; read-out: concentration required for 50% inhibition in the competitive antigen ELISA, 1X-Ab): 10 µM
16 | Cn1c(=O)[nH]c2[nH]c(=O)n(C)c2c1=O [1,7-Dimethyluric acid] | 0% | 0 | –
17 | Cn1c(=O)c2[nH]cnc2n(C)c1=O [1,3-Dimethyl Xanthine (Theophylline), 1,3-Dimethyl Xanthine] | 0% | 0.2 | –
18 | Cn1cnc2c1c(=O)[nH]c(=O)n2C [3,7-Dimethyl Xanthine (Theobromine), 3,7-Dimethyl Xanthine] | 0% | 0 | –
19 | O=c1cc[nH]c(=O)[nH]1 [Uracil] | 0% | 0 | –
20 | CC(=O)Nc1c(N)n(C)c(=O)[nH]c1=O [5-Acetamino-6-amino-1-methyluracil] | 100% | 0 | IC50 (AAMU-Ab; read-out: concentration required for 50% inhibition in the competitive antigen ELISA, AAMU-Ab): 1.5 µM
